Experimental data taken from patent US20100184708A1, “USE OF GLY-PRO-GLU-OH (GPE) AS A THERAPEUTIC AGENT” (priority 2007, published 2010).

Test system: drug-resistant Mycobacterium tuberculosis
Conditions: peptide 10 micrograms per ml, seven days

## NCC(=O)N1CCC[C@H]1C(=O)N[C@@H](CCC(=O)O)C(=O)O [IGF-I (1-3), Gly-Pro-Glu-OH]
  % inhibition: 0.0%
